The values that follow come from ChEMBL document CHEMBL5291721, “A preclinical secondary pharmacology resource illuminates target-adverse drug reaction associations of marketed drugs” (Nat Commun, 2023).

Experiment [1] addresses Beta-2 adrenergic receptor (Homo sapiens, UniProt P07550). It is filed as functional, cell-based.
In experiment [2] the target is T1, Endothelin-1 receptor (Homo sapiens, UniProt P25101).
T1 sequence (P25101 whole entry): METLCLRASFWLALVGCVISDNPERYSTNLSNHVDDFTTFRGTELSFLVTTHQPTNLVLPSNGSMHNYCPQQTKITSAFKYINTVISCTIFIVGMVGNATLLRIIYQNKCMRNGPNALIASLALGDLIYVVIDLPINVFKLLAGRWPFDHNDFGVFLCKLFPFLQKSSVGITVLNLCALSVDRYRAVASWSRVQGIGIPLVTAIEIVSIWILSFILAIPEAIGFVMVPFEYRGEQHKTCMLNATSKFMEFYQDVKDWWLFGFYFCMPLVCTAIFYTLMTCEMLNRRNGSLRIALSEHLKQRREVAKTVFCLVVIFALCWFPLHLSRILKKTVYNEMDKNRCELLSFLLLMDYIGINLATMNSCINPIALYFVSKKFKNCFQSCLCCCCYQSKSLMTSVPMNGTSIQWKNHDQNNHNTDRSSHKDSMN

Experiment [3] has as its target Glutamate receptor ionotropic, NMDA 1 (Rattus norvegicus, UniProt P35439).
In experiment [4] the target is T2, Alpha-1A adrenergic receptor (Homo sapiens, UniProt P35348).
T2 sequence (P35348 whole entry): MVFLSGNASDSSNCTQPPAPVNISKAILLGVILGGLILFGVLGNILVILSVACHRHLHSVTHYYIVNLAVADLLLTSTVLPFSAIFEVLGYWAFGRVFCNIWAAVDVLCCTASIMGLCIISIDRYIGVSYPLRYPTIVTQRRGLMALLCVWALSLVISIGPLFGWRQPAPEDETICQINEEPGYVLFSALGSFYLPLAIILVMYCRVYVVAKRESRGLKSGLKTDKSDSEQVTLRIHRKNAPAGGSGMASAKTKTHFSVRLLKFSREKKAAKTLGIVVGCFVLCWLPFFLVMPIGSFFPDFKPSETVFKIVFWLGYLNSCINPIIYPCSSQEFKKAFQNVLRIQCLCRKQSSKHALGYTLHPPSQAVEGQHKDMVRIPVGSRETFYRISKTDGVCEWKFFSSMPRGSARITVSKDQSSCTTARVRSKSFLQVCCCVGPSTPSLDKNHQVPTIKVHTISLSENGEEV
Type of experiment: functional, cell-based.

For experiment [5], the target named is T3, Progesterone receptor (Homo sapiens, UniProt P06401).
T3 sequence (P06401 whole entry): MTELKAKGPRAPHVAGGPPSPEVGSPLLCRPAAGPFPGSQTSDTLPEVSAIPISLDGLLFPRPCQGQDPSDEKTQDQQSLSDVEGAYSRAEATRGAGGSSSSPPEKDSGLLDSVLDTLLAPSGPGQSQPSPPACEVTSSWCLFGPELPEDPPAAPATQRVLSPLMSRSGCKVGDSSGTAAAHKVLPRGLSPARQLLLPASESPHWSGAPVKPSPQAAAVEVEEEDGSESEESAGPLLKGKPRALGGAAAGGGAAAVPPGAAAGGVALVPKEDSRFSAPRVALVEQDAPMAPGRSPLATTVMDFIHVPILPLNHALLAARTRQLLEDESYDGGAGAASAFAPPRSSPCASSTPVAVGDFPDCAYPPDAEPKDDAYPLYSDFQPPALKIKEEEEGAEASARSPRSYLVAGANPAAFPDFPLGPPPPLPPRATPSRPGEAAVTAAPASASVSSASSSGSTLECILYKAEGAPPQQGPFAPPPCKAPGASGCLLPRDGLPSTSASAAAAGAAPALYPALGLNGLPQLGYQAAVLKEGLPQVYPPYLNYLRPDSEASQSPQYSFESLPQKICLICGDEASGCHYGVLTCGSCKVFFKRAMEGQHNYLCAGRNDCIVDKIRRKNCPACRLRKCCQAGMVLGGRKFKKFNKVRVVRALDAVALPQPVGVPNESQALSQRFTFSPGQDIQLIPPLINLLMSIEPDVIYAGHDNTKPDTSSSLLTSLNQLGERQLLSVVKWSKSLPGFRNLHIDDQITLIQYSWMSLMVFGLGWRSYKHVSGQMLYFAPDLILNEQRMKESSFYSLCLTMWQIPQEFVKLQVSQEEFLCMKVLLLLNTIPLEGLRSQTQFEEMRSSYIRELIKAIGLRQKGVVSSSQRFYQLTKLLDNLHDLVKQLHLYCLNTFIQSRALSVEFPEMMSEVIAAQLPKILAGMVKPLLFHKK
Type of experiment: functional.

For experiment [6], the target named is T3, Progesterone receptor. Type of experiment: functional. The source holds these as a separate data set.
For experiment [7], the target named is Histamine H3 receptor (Homo sapiens, UniProt Q9Y5N1).
Experiment [8] has as its target Vascular endothelial growth factor receptor 2 (Homo sapiens, UniProt P35968). It is filed as functional.
Experiment [9] addresses T4, Amine oxidase [flavin-containing] A (Homo sapiens, UniProt P21397).
T4 sequence (P21397 whole entry): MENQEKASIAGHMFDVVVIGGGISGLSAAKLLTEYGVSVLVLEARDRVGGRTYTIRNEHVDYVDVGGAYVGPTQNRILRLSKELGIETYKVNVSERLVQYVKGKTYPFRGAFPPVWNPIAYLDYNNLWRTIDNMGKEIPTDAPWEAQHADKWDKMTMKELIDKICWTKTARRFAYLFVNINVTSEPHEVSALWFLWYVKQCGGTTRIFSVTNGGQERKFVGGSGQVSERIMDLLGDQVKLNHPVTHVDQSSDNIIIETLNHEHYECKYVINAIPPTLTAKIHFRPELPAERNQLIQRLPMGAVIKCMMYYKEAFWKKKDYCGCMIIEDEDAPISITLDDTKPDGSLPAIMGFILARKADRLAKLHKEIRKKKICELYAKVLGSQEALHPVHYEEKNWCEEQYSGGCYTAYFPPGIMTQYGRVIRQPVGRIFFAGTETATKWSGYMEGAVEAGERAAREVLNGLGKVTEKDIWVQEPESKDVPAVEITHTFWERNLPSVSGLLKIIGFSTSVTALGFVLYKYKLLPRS
Type of experiment: functional.

For experiment [10], the target named is T3, Progesterone receptor.

Several values for one entry are separate records, joined by “and”; a condition that tells them apart may be missing. Identical values can stand only once.
Also: assay procedure not described here.

Chain of Beta-2 adrenergic receptor (P07550 whole entry): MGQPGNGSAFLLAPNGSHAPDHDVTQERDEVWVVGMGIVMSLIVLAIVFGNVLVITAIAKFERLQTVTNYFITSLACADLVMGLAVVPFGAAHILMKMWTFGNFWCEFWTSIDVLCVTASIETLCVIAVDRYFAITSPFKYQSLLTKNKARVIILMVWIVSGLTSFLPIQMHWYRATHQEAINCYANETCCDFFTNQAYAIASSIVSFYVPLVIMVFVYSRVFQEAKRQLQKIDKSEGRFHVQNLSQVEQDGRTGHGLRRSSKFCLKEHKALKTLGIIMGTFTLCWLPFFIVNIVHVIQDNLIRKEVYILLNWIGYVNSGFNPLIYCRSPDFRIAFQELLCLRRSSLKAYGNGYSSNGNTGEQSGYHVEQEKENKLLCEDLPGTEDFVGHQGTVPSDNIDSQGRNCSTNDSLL
Chain of Vascular endothelial growth factor receptor 2 (P35968 whole entry): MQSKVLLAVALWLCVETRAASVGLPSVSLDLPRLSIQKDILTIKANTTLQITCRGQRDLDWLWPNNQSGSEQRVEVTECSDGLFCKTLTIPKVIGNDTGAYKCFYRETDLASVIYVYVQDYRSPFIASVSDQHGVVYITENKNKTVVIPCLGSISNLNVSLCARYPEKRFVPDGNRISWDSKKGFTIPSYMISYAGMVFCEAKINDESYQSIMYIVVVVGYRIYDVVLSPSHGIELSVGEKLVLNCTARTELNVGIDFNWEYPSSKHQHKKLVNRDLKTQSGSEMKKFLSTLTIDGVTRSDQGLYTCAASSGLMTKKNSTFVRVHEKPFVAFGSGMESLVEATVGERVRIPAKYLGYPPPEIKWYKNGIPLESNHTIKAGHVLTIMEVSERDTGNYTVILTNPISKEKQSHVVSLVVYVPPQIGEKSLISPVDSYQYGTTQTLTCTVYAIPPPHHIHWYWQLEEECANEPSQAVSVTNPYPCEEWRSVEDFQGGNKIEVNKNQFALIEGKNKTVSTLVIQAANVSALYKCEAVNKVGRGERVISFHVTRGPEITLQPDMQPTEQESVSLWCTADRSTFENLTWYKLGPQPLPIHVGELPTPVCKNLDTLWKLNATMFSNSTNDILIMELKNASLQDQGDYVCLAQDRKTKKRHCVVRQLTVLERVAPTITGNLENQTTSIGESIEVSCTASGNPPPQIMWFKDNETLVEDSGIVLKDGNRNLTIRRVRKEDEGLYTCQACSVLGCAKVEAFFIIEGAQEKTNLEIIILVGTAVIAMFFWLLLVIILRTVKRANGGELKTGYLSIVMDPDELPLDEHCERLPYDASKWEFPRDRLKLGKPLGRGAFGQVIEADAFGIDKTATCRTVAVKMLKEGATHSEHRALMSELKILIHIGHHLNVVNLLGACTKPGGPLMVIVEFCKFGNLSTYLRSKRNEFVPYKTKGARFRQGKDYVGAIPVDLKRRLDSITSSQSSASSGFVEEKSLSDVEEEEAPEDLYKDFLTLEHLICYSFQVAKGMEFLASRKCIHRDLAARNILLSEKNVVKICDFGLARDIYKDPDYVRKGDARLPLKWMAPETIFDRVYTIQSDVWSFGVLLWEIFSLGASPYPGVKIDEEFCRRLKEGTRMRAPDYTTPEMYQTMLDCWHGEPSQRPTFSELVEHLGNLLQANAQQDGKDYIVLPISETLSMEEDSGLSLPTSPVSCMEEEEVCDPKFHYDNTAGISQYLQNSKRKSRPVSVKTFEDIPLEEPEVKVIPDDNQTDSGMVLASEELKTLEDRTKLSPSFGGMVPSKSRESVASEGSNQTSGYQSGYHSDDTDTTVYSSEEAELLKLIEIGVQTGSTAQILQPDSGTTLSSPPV
Chain of Histamine H3 receptor (Q9Y5N1 whole entry): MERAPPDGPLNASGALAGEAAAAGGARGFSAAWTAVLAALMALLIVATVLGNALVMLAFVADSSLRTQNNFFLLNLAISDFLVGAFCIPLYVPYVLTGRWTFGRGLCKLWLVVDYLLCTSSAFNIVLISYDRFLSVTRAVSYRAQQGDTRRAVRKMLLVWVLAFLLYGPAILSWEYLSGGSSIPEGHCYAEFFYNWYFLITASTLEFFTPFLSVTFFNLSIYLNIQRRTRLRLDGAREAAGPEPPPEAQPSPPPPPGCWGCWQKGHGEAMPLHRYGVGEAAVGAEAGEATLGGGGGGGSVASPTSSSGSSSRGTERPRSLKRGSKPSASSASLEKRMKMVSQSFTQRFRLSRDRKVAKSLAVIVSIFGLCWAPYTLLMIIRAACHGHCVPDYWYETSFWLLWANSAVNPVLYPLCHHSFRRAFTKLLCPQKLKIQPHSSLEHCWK

As for `NC(N)=Nc1nc(CSCCC(N)=NS(N)(=O)=O)cs1` [FAMOTIDINE], the AC50 in [1] was greater than 30 µM; in experiment [2], greater than 30 µM; in [3] it was greater than 10 µM; in experiment [4], greater than 30 µM.
For the compound `Cc1cccc(C)c1OCC(C)N` (centres undefined) [MEXILETINE], the AC50 in experiment [1], in experiment [2], in experiment [5], in experiment [6] and in experiment [4] was greater than 30 µM each time.
For `CCOC(=O)[C@H](CCc1ccccc1)N[C@@H](C)C(=O)N1CCC[C@H]1C(=O)O`, the AC50 in experiment [1] was greater than 30 µM; in [2] it was greater than 30 µM; in experiment [3], greater than 10 µM; in experiment [4] it was greater than 30 µM.
Regarding `CC(=O)OCC(=O)[C@@]1(O)CC[C@H]2[C@@H]3CCC4=CC(=O)CC[C@]4(C)[C@H]3C(=O)C[C@@]21C` [CORTISONE ACETATE], the AC50 in experiment [1], in experiment [3] and in [4] was greater than 30 µM in each case.
On to `CCC[C@@H]1C[C@@H](C(=O)N[C@@H]([C@H]2O[C@H](SC)[C@H](O)[C@@H](O)[C@H]2O)[C@H](C)Cl)N(C)C1` [CLINDAMYCIN], for which the AC50 in experiment [1] is greater than 30 µM; in experiment [2], greater than 30 µM; in experiment [3] it was greater than 10 µM; in experiment [4], greater than 30 µM.
As for `CCc1ccc(CCOc2ccc(CC3SC(=O)NC3=O)cc2)nc1` (centres undefined) [PIOGLITAZONE], the AC50 in experiment [2] is 15.9 µM; in [3], greater than 10 µM; in experiment [7] it was greater than 3 µM; in experiment [8], greater than 30 µM; in experiment [9] it was greater than 30 µM; in [10], greater than 30 µM.
Regarding `N[C@@H](C(=O)N[C@@H]1C(=O)N2C(C(=O)O)=C(Cl)CS[C@H]12)c1ccccc1` [CEFACLOR ANHYDROUS], the AC50 in [1], in [2], in experiment [3], in experiment [5], in [6] and in experiment [4] was greater than 30 µM throughout.
Take `CN1CCCC(n2nc(Cc3ccc(Cl)cc3)c3ccccc3c2=O)CC1` (centres undefined) [AZELASTINE]: the AC50 is greater than 30 µM in experiment [1]; greater than 30 µM in experiment [2]; greater than 30 µM in [5]; greater than 30 µM in [6]; 1.1 µM in [4].
For `CC(C)C(=O)Nc1ccc([N+](=O)[O-])c(C(F)(F)F)c1` [FLUTAMIDE], the AC50 in [3] is greater than 10 µM; in experiment [7] it was greater than 30 µM; in [8] it was greater than 30 µM; in experiment [9] it was greater than 30 µM; in [5] it was greater than 10 µM; in experiment [6] it was greater than 10 µM. Further, the AC50 in experiment [10] and in [4] was greater than 30 µM in each case.
Turning to `NC(=O)c1ncn([C@@H]2O[C@H](CO)[C@@H](O)[C@H]2O)c1O` [MIZORIBINE], the AC50 in experiment [1], in experiment [2], in [3], in [5], in experiment [6] and in experiment [4] was greater than 30 µM throughout.
For `CO/N=C(\C(=O)N[C@@H]1C(=O)N2C(C(=O)[O-])=C(C[N+]3(C)CCCC3)CS[C@H]12)c1csc(N)n1`, the AC50 in [1] was greater than 300 µM; in experiment [2], greater than 300 µM; in experiment [3] it was greater than 30 µM; in experiment [5] it was greater than 300 µM; in experiment [6] it was > 30 µM and 140 µM; in experiment [4] it was greater than 300 µM.
In the case of `NC(=O)c1cnccn1` [PYRAZINAMIDE], the AC50 in [2], in experiment [3], in [7], in [8], in experiment [9] and in experiment [5] was greater than 30 µM each time. Also, the AC50 in [6] is greater than 30 µM; in [10], greater than 30 µM; in [4], 28 µM.
Consider `CC(=O)c1ccc2c(c1)N(CCCN1CCN(CCO)CC1)c1ccccc1S2` [ACETOPHENAZINE], for which the AC50 in experiment [1] is greater than 30 µM; in experiment [2], greater than 30 µM; in [5] it was greater than 30 µM; in [6] it was greater than 3 µM; in experiment [4] it was 0.0045 µM.
Consider `COC(=O)[C@@H]1CC2=CC(=O)CC[C@]2(C)[C@@]23O[C@@H]2C[C@@]2(C)[C@@H](CC[C@@]24CCC(=O)O4)[C@H]13` [EPLERENONE], for which the AC50 in experiment [1] was greater than 30 µM; in experiment [2], greater than 30 µM; in experiment [3], greater than 10 µM; in [4], greater than 30 µM.
For `CN(CCOc1ccc(NS(C)(=O)=O)cc1)CCc1ccc(NS(C)(=O)=O)cc1` [DOFETILIDE], the AC50 is greater than 30 µM in experiment [2]; greater than 10 µM in experiment [3]; greater than 30 µM in [7]; greater than 30 µM in [8]; greater than 30 µM in [9]; greater than 30 µM in [10]. In [4], this compound returned an AC50 greater than 30 µM.
Take `CC(C)NNC(=O)c1ccncc1` [IPRONIAZID]: the AC50 in [1], in experiment [2], in experiment [5], in [6] and in [4] was greater than 30 µM throughout.
`O=C1[C@H](CC[C@H](O)c2ccc(F)cc2)[C@@H](c2ccc(O)cc2)N1c1ccc(F)cc1` [EZETIMIBE]: the concentration at half-maximal activity (AC50) in experiment [7] was greater than 30 µM; in experiment [8] it was greater than 30 µM; in experiment [9], greater than 30 µM; in experiment [10], 24.6 µM.
On to `CC(C)Cc1ccc(CC(=O)O)cc1` [IBUFENAC], for which the AC50 in [1], in [2], in [5], in experiment [6] and in experiment [4] was greater than 30 µM in each case.
Consider `CCN(CC)CCNC(=O)c1cc(Cl)c(N)cc1OC` [METOCLOPRAMIDE], for which the AC50 in experiment [1] is greater than 30 µM; in experiment [2], greater than 30 µM; in experiment [3], greater than 10 µM; in experiment [4], greater than 30 µM.
With `O=C(COc1ccc(Cl)cc1)N1CCN(Cc2ccc3c(c2)OCO3)CC1` [FIPEXIDE], the AC50 in [7], in experiment [8], in experiment [9] and in experiment [10] was greater than 30 µM in each case.
